# Source: PubChem BioAssay (NCI)
#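 Abbreviation: GI50, concentration required for 50% inhibition of growth. TGI: total growth inhibition.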
# Tests used:
# Experiment in all cases: DTP human tumour cell line panel, 384-well format
# SR leukemia = system: SR leukemia
# RPMI-8226 leukemia = system: RPMI-8226 leukemia
# NCI-H226 lung = system: NCI-H226 lung
# NCI-H23 lung = system: NCI-H23 lung
# NCI-H322M lung = system: NCI-H322M lung
# SF-295 CNS = system: SF-295 CNS
# BT-549 breast = system: BT-549 breast
# MOLT-4 leukemia = system: MOLT-4 leukemia
# T-47D breast = system: T-47D breast
# NCI-H522 lung = system: NCI-H522 lung
# HOP-92 NSCLC = system: HOP-92 NSCLC
# RXF 393 renal = system: RXF 393 renal
# EKVX NSCLC = system: EKVX NSCLC
# A549 NSCLC = system: A549 NSCLC
# NCI/ADR-RES ovarian = system: NCI/ADR-RES ovarian
# K-562 leukemia = system: K-562 leukemia
# COLO 205 colon = system: COLO 205 colon
# M14 melanoma = system: M14 melanoma
# OVCAR-4 ovarian = system: OVCAR-4 ovarian
# SK-MEL-5 melanoma = system: SK-MEL-5 melanoma
# HT29 colon = system: HT29 colon
# OVCAR-8 ovarian = system: OVCAR-8 ovarian
# CCRF-CEM leukemia = system: CCRF-CEM leukemia
# UACC-257 melanoma = system: UACC-257 melanoma
# LOX IMVI melanoma = system: LOX IMVI melanoma
# HCT-15 colon = system: HCT-15 colon
# PC-3 prostate = system: PC-3 prostate
# MCF7 breast = system: MCF7 breast
# MALME-3M melanoma = system: MALME-3M melanoma
# MDA-MB-468 breast = system: MDA-MB-468 breast
# UO-31 renal = system: UO-31 renal
# MDA-MB-231 breast = system: MDA-MB-231 breast
# DU-145 prostate = system: DU-145 prostate
# 786-0 renal = system: 786-0 renal
# HL-60(TB) leukemia = system: HL-60(TB) leukemia
smiles,measurement,setting,value
CC(C)(O)c1ccc(N2CCN(c3nnc(Cc4ccccc4)c4ccccc34)CC2)nc1,GI50,SR leukemia,2.08 µM
same,TGI,SR leukemia,5.25 µM
same,GI50,RPMI-8226 leukemia,2.18 µM
same,TGI,RPMI-8226 leukemia,5.27 µM
same,GI50,NCI-H226 lung,6.6 µM
same,GI50,NCI-H23 lung,4.38 µM
same,GI50,NCI-H322M lung,8.82 µM
same,GI50,SF-295 CNS,7.65 µM
same,GI50,BT-549 breast,6.9 µM
same,GI50,MOLT-4 leukemia,2.07 µM
same,TGI,MOLT-4 leukemia,3.86 µM
same,GI50,T-47D breast,1.92 µM
same,TGI,T-47D breast,6.25 µM
same,GI50,NCI-H522 lung,6.23 µM
same,GI50,HOP-92 NSCLC,8.09 µM
same,GI50,RXF 393 renal,6.29 µM
same,GI50,EKVX NSCLC,4.39 µM
same,GI50,A549 NSCLC,5.79 µM
same,GI50,NCI/ADR-RES ovarian,3.02 µM
same,GI50,K-562 leukemia,4.85 µM
same,GI50,COLO 205 colon,4.39 µM
same,GI50,M14 melanoma,8.59 µM
same,GI50,OVCAR-4 ovarian,3.75 µM
same,GI50,SK-MEL-5 melanoma,2.17 µM
same,TGI,SK-MEL-5 melanoma,4.19 µM
same,GI50,HT29 colon,9.38 µM
same,GI50,OVCAR-8 ovarian,5.64 µM
same,GI50,CCRF-CEM leukemia,3.83 µM
same,GI50,UACC-257 melanoma,5.3 µM
same,GI50,LOX IMVI melanoma,9.67 µM
same,GI50,HCT-15 colon,7.34 µM
same,GI50,PC-3 prostate,9.46 µM
same,GI50,MCF7 breast,7.42 µM
same,GI50,MALME-3M melanoma,3.24 µM
same,GI50,MDA-MB-468 breast,1.62 µM
same,TGI,MDA-MB-468 breast,4.37 µM
same,GI50,UO-31 renal,6.13 µM
same,GI50,MDA-MB-231 breast,3.22 µM
same,GI50,DU-145 prostate,5.86 µM
same,GI50,786-0 renal,6.92 µM
same,GI50,HL-60(TB) leukemia,2.68 µM
same,TGI,HL-60(TB) leukemia,5.16 µM
